In ChEMBL document CHEMBL1149679 (Bioorg Med Chem Lett, 2007):

Assays:
[1] = target: T1, Polyunsaturated fatty acid lipoxygenase ALOX15 (Oryctolagus cuniculus, UniProt P12530); assay: Inhibition of rabbit 15-lipoxygenase in presence of linoleic acid
T1 sequence (P12530 whole entry): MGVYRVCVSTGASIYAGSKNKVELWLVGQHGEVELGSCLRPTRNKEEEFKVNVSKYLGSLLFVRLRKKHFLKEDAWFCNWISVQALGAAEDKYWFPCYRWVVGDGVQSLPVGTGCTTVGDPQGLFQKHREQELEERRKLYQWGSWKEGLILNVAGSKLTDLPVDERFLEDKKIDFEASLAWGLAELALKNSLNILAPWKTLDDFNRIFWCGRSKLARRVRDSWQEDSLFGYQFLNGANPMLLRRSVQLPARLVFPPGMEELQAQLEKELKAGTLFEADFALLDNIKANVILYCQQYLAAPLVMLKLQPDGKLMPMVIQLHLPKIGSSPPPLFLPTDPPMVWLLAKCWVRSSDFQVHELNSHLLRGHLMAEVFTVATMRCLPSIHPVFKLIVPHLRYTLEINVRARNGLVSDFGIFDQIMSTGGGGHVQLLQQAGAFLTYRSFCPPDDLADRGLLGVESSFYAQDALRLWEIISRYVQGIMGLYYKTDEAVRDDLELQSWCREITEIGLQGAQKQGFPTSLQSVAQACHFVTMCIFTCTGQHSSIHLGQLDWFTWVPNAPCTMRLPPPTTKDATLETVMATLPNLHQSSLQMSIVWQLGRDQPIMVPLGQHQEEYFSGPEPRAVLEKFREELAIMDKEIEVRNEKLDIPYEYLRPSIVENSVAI

[2] = target: T1, Polyunsaturated fatty acid lipoxygenase ALOX15; assay: Inhibition of rabbit 15-lipoxygenase in presence of arachidonic acid
[3] = Cmax in Sprague-Dawley rat at 7 mg/kg, po; assay type: ADME, organism-based; parameters: dose 7 mg/kg, route oral; conditions: in vivo
[4] = AUC in Sprague-Dawley rat at 7 mg/kg, po; assay type: ADME, organism-based; parameters: dose 7 mg/kg, route oral; conditions: plasma

IC50 [1]: 14 nM | IC50 [2]: 50 nM | Cmax [3]: 1700 nM | AUC [4]: 4.4 µM·h
SMILES: CCCCN1CCN(S(=O)(=O)NCCc2nc(-c3cccs3)[nH]c2-c2ccc(OC)cc2)CC1
